Measurements: ChEMBL document CHEMBL3286123, “Aliphatic phenolic ethers from Trichobotrys effusa” (2014)

test system: A549; assay: Growth inhibition of human A549 cells after 48 hrs by SRB assay; format: functional; conditions: A549, 48 h

Row | Compound | GI50 [µM]
1 | C/C=C/C=C/C=C(\CO)[C@H](OCc1c(O)cccc1CCC)[C@H](C)O | 25.6
2 | C/C=C/C=C/C=C(\C=O)C(OCc1c(O)cccc1CCC)C(C)=O (stereo unspecified) | 19.3
3 | C/C=C/C=C/C=C1\[C@H](OC)O[C@](C)(OC)[C@H]1OCc1c(O)cccc1CCC | 16.2
4 | C/C=C/C=C/C=C1\CO[C@](C)(OC)[C@H]1OCc1c(O)cccc1CCC | 24.3
5 | O=c1[nH]cc(F)c(=O)[nH]1 [FLUOROURACIL] | 4.55
6 | C[C@@H]1C[C@H]2O[C@@H]2/C=C\C=C\C(=O)Cc2c(Cl)c(O)cc(O)c2C(=O)O1 [RADICICOL] | 1.43
